Data as given in patent publication US20110224231A1, “Novel Lactams as Beta Secretase Inhibitors” (Pfizer Inc., priority 2008, published 2011).

Biological target: T1, soluble human BACE (Homo sapiens, UniProt P56817)
T1 construct: cells secreting human recombinant soluble BACE; made in house; conditioned medium
Test: BACE activity Cell Free Assay (ELISA of cleaved synthetic APP substrate)
Type: biochemical
Description: A synthetic APP substrate that can be cleaved by beta˜secretase and having N-terminal biotin is used to assay beta-secretase activity in the presence or absence of the inhibitory compounds. […] The substrate and test compounds are added to 384 well polypropylene plates. The reaction is initiated by the addition of soluble BACE enzyme to a final volume of 12.5 μL per well. The final assay conditions are: 0.001˜300 μM compound inhibitor, 0.05M sodium acetate (pH 4.5), 3 μM substrate, soluble human BACE, and 2% DMSO. Concentrated conditioned media from cells secreting human recombinant soluble BACE was titrated to provide a source of BACE enzyme. The cell media can be used as either a crude BACE prep or BACE can be purified using any number of techniques, including immobilized BACE inhibitor purification columns. The assay mixture is incubated for 1 hour at 37° C., and the reaction is quenched by the addition of an equal volume of 0.1M Tris, pH 8. Half of the quenched mix is incubated on clear streptavidin coated 384 well polystyrene plates for 1 hour. An ELISA is then performed using an in˜house antibody that specifically recognizes the new C˜terminus created after cleavage by BACE. […] (These polyclonal antibodies were raised in rabbits by immunizing with antigen comprised of six amino acid residues present at the carboxy terminus of the wild-type soluble APPbeta sequence (NH2-ISEVKM-COOH) or seven amino acid residues present at the carboxy terminus of the Swedish mutation at the beta cleavage site (NH2-EISEVNL˜COOH) conjugated to keyhole limpet hemacyanin by methods known to those skilled in the art.) A secondary anti˜species Horseradish Peroxidase (HRP) conjugated antibody is then utilized. The readout, following assay development with TMB substrate and quenching with 0.09M sulfuric acid, is absorbance at 450 nm.

T1 sequence (P56817 46-457 limits assumed): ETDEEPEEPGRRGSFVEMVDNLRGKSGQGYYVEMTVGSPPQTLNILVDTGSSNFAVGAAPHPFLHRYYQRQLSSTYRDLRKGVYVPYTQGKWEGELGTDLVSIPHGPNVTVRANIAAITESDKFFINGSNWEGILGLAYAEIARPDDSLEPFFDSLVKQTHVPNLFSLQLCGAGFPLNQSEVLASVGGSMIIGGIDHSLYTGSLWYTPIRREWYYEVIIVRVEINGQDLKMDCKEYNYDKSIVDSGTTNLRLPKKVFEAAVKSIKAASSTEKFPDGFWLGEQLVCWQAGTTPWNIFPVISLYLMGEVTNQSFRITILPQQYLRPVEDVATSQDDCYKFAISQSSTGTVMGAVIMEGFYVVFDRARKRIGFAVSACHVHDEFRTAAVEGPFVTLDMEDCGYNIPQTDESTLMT

| Compound | IC50 [µM] |
| --- | --- |
| CCOc1cccc(CN2CCC3(C=CC(=O)N3c3cccc(F)c3)CC2C)c1 (racemic) [Example 1, Racemic (5R,7S),(5S,7R)-8-(3-ethoxybenzyl)-1-(3-fluorophenyl)-7-methyl-1,8-diazaspiro[4.5]dec-3-en-2-one] | 10 to 100 |
| Cc1ccc(Oc2cccc(CN3CCC4(C=CC(=O)N4c4cccc(F)c4)CC3C)c2)cc1 (racemic) [Example 2, Racemic (5R,7S),(5S,7R)-1-(3-fluorophenyl)-7-methyl-8-[3-(4-methylphenoxy)benzyl]-1,8-diazaspiro[4.5]dec-3-en-2-one] | 1 to 10 |
| COc1ccc(Oc2cccc(CN3CCC4(C=CC(=O)N4c4cccc(F)c4)CC3C)c2)cc1 (racemic) [Example 3, Racemic (5R,7S),(5S,7R)-1-(3-fluorophenyl)-8-[3-(4-methoxyphenoxy)benzyl]-7-methyl-1,8-diazaspiro[4.5]dec-3-en-2-one] | 10 to 100 |
| CC1CC2(C=CC(=O)N2c2cccc(F)c2)CCN1Cc1cccc(S(=O)(=O)N2CCCC2)c1 (racemic) [Example 4, Racemic (5R,7S),(5S,7R)-1-(3-fluorophenyl)-7-methyl-8-[3-(pyrrolidin-1-ylsulfonyl)benzyl]-1,8-diazaspiro[4.5]dec-3-en-2-one] | 10 to 100 |
| CC1CC2(C=CC(=O)N2c2cccc(F)c2)CCN1Cc1cccc(COc2cc(F)cc(F)c2)c1 (racemic) [Example 5, Racemic (5R,7S),(5S,7R)-8-{3-[(3,5-difluorophenoxy)methyl]benzyl}-1-(3-fluorophenyl)-7-methyl-1,8-diazaspiro[4.5]dec-3-en-2-one] | 10 to 100 |
| CC1CC2(C=CC(=O)N2c2cccc(F)c2)CCN1Cc1cccc(O)n1 (racemic) [Example 6, Racemic (5R,7S),(5S,7R)-1-(3-fluorophenyl)-8-[(6-hydroxypyridin-2-yl)methyl]-7-methyl-1,8-diazaspiro[4.5]dec-3-en-2-one] | 100 to 300 |
| CC1CC2(C=CC(=O)N2c2cccc(F)c2)CCN1Cc1cccc(C#N)c1 (racemic) [Example 7, Racemic 3-{[(5R,7S),(5S,7R)-1-(3-fluorophenyl)-7-methyl-2-oxo-1,8-diazaspiro[4.5]dec-3-en-8-yl]methyl}benzonitrile] | 10 to 100 |
| COc1cccc(CN2CCC3(C=CC(=O)N3c3cccc(F)c3)CC2C)c1 (racemic) [Example 8, Racemic (5R,7S),(5S,7R)-1-(3-fluorophenyl)-8-(3-methoxybenzyl)-7-methyl-1,8-diazaspiro[4.5]dec-3-en-2-one] | 100 to 300 |
| CC1CC2(C=CC(=O)N2c2cccc(F)c2)CCN1Cc1ccc(O)cc1O (racemic) [Example 9, Racemic (5R,7S),(5S,7R)-8-(2,4-dihydroxybenzyl)-1-(3-fluorophenyl)-7-methyl-1,8-diazaspiro[4.5]dec-3-en-2-one] | 100 to 300 |
| CCCn1nccc1CN1CCC2(C=CC(=O)N2c2cccc(F)c2)CC1C (racemic) [Example 10, Racemic (5R,7S),(5S,7R)-1-(3-fluorophenyl)-7-methyl-8-[(1-propyl-1H-pyrazol-5-yl)methyl]-1,8-diazaspiro[4.5]dec-3-en-2-one] | 10 to 100 |
| CC1CC2(C=CC(=O)N2c2cccc(F)c2)CCN1Cc1ccc2[nH]ccc2c1 (racemic) [Example 11, Racemic (5R,7S),(5S,7R)-1-(3-fluorophenyl)-8-(1H-indol-5-ylmethyl)-7-methyl-1,8-diazaspiro[4.5]dec-3-en-2-one] | 10 to 100 |
| COc1cc(CN2CCC3(C=CC(=O)N3c3cccc(F)c3)CC2C)ccc1O (racemic) [Example 12, Racemic (5R,7S),(5S,7R)-1-(3-fluorophenyl)-8-(4-hydroxy-3-methoxybenzyl)-7-methyl-1,8-diazaspiro[4.5]dec-3-en-2-one] | 1 to 10 |
| COc1cc(CN2CCC3(C=CC(=O)N3c3cccc(F)c3)CC2C)ccc1F (racemic) [Example 13, Racemic (5R,7S),(5S,7R)-8-(4-fluoro-3-methoxybenzyl)-1-(3-fluorophenyl)-7-methyl-1,8-diazaspiro[4.5]dec-3-en-2-one] | 10 to 100 |
| COc1ccc(F)c(CN2CCC3(C=CC(=O)N3c3cccc(F)c3)CC2C)c1 (racemic) [Example 14, Racemic (5R,7S),(5S,7R)-8-(2-fluoro-5-methoxybenzyl)-1-(3-fluorophenyl)-7-methyl-1,8-diazaspiro[4.5]dec-3-en-2-one] | 100 to 300 |
| CC1CC2(C=CC(=O)N2c2cccc(F)c2)CCN1Cc1ccc(O)c(Cl)c1 (racemic) [Example 15, Racemic (5R,7S),(5S,7R)-8-(3-chloro-4-hydroxybenzyl)-1-(3-fluorophenyl)-7-methyl-1,8-diazaspiro[4.5]dec-3-en-2-one] | 1 to 10 |
| CC(C)Oc1cccc(CN2CCC3(C=CC(=O)N3c3cccc(F)c3)CC2C)c1 (racemic) [Example 16, Racemic (5R,7S),(5S,7R)-1(3-fluorophenyl)-8-(3-isopropoxybenzyl)-7-methyl-1,8-diazaspiro[4.5]dec-3-en-2-one] | 1 to 10 |
| CCCOc1cccc(CN2CCC3(C=CC(=O)N3c3cccc(F)c3)CC2C)c1 (racemic) [Example 17, Racemic (5R,7S),(5S,7R)-1-(3-fluorophenyl)-7-methyl-8-(3-propoxybenzyl)-1,8-diazaspiro[4.5]dec-3-en-2-one] | 10 to 100 |
| CC(C)COc1cccc(CN2CCC3(C=CC(=O)N3c3cccc(F)c3)CC2C)c1 (racemic) [Example 18, Racemic (5R,7S),(5S,7R)-1-(3-fluorophenyl)-8-(3-isobutoxybenzyl)-7-rnethyl-1,8-diazaspiro[4.5]dec-3-en-2-one] | 10 to 100 |
| CC1CC2(C=CC(=O)N2c2cccc(F)c2)CCN1Cc1cccc(-c2ccccn2)c1 (racemic) [Example 19, Racemic (5R,7S),(5S,7R)-1-(3-fluorophenyl)-7-methyl-8-(3-pyridin-2-ylbenzyl)-1,8-diazaspiro[4.5]dec-3-en-2-one] | 10 to 100 |
| CC1CC2(C=CC(=O)N2c2cccc(F)c2)CCN1Cc1cccc(OC2CCCC2)c1 (racemic) [Example 20, Racemic (5R,7S),(5S,7R)-8-[3-(cyclopentyloxy)benzyl]-1-(3-fluorophenyl)-7-methyl-1,8-diazaspiro[4.5]dec-3-en-2-one] | 10 to 100 |
| Cc1ccncc1-c1cccc(CN2CCC3(C=CC(=O)N3c3cccc(F)c3)CC2C)c1 (racemic) [Example 21, Racemic (5R,7S),(5S,7R)-1-(3-fluorophenyl)-7-methyl-8-[3-(4-methylpyridin-3-yl)benzyl]-1,8-diazaspiro[4.5]dec-3-en-2-one] | 1 to 10 |
| CC1CC2(C=CC(=O)N2c2cccc(F)c2)CCN1Cc1cccc(Oc2ccccc2)c1 (racemic) [Example 22, Racemic (5R,7S),(5S,7R)-1-(3-fluorophenyl)-7-methyl-8-(3-phenoxybenzyl)-1,8-diazaspiro[4.5]dec-3-en-2-one] | 10 to 100 |
| CC1CC2(C=CC(=O)N2c2cccc(F)c2)CCN1Cc1cc(Br)ccc1F (racemic) [Example 23, Racemic (5R,7S),(5S,7R)-8-(5-bromo-2-fluorobenzyl)-1-(3-fluorophenyl)-7-methyl-1,8-diazaspiro[4.5]dec-3-en-2-one] | 10 to 100 |
| CC1CC2(C=CC(=O)N2c2cccc(F)c2)CCN1Cc1ccc(F)c(Br)c1 (racemic) [Example 24, Racemic (5R,7S),(5S,7R)-8-(3-bromo-4-fluorobenzyl)-1-(3-fluorophenyl)-7-methyl-1,8-diazaspiro[4.5]dec-3-en-2-one] | 100 to 300 |
| CC1CC2(C=CC(=O)N2c2cccc(F)c2)CCN1Cc1cccc(-c2cncc(C#N)c2)c1 (racemic) [Example 25, Racemic 5-(3-{[(5R,7S),(5S,7R)-1-(3-fluorophenyl)-7-methyl-2-oxo-1,8-diazaspiro[4.5]dec-3-en-8-yl]methyl}phenyl)nicotinonitrile] | 10 to 100 |
| CC1CC2(C=CC(=O)N2c2cccc(F)c2)CCN1Cc1nc(-c2ccc(C#N)cc2)cs1 (racemic) [Example 26, Racemic 4-(2-{[(5R,7S),(5S,7R)-1-(3-fluorophenyl)-7-methyl-2-oxo-1,8-diazaspiro[4.5]dec-3-en-8-yl]methyl}-1,3-thiazol-4-yl)benzonitrile] | 10 to 100 |
| CC1CC2(C=CC(=O)N2c2cccc(F)c2)CCN1Cc1nc(-c2cccc(C#N)c2)cs1 (racemic) [Example 27, Racemic 3-(2-{[(5R,7S),(5S,7R)-1-(3-fluorophenyl)-7-methyl-2-oxo-1,8-diazaspiro[4.5]dec-3-en-8-yl]methyl}-1,3-thiazol-4-yl)benzonitrite] | 10 to 100 |
| CC(C)NS(=O)(=O)c1cccc(CN2CCC3(C=CC(=O)N3c3cccc(F)c3)CC2C)c1 (racemic) [Example 28, Racemic 3-{[(5R,7S),(5S,7R)-1-(3-fluorophenyl)-7-methyl-2-oxo-1,8-diazaspiro[4.5]dec-3-en-8-yl]methyl}-N-isopropylbenzenesulfonamide] | 10 to 100 |
| CC1CC2(C=CC(=O)N2c2cccc(F)c2)CCN1Cc1cccc(Oc2ccc(Cl)cc2)c1 (racemic) [Example 29, Racemic (5R,7S),(5S,7R)-8-[3-(4-chlorophenoxy)benzyl]-1-(3-fluorophenyl)-7-methyl-1,8-diazaspiro[4.5]dec-3-en-2-one] | 10 to 100 |
